Tests used:
[1] = tested on: HMLER CD24^low cells; assay: Localization of intracellular iron(II) with RhoNox-1; type: cell-based, human; conditions: 0.5 μM, 48 h; for lysotracker-positive vesicles colocalized with the RhoNox-1 probe: fixed cells
Procedure: Localization of intracellular iron(II). RhoNox-1 was synthesized according to the original procedure described in […]. Cells were washed with 1× Hank's Balanced Salt Solution (HBSS, 14025-092, Life technologies) three times, then incubated with 5 μM of RhoNox-1/HBSS for 1 h at 37° C., 5% CO2 and washed with HBSS. Co-staining was performed by adding 100 nM LysoTracker Deep Red and Hoechst 33342 (H1399, Sigma, final concentration of 1 μg/mL) in HBSS. Experiments were performed with a 60×APO TIRF oil immersion objective of Nipkow Spinning Disk confocal system.

[2] = type: physicochemical
Excerpt: FIG. 1. Salinomycin and AM5 sequester iron in lysosomes and trigger ferritin degradation. a, Chemical strategy to visualize small molecules in cells. b, Fluorescence microscopy images of U2OS cells showing the subcellular localization of labeled Sal derivatives AM4, AM5, and AM9. Lysotracker Deep Red stains the lysosomes and 4′,6-diamidino-2-phenylindole (DAPI) stains nuclear DNA. Scale bar, 10 μm. Zoom corresponds to ×6. c, Live cell fluorescence microscopy images showing the subcellular localization of iron(II) using the fluorogenic reduction of RhoNox-1 (green) in HMLER CD24^low cells treated with Sal or AM5 or AM9 (0.5 μM) for 48 h. Lysotracker deep red stains the lysosomes (red) and DAPI stains nuclear DNA (blue). Scale bar, 10 μm. d, Fixed cell fluorescence microscopy images showing the subcellular localization of iron(II) using the fluorogenic reduction of RhoNox-1 (green) in HMLER CD24^low cells treated with Sal or AM5 or AM9 (0.5 μM) for 48 h. e, Quantification of lysotracker-positive vesicles colocalizing with RhoNox-1 in fixed cells was carried out by means of visual inspection. At least 75 cells were counted per condition. Data represent three independent biological replicates (n=number of lysotracker vesicles). […] Spectra were recorded in CD3CN. […] For k and I, Samples prepared in CD3OD, spectra recorded at 298 K, 5 min following sample preparation (600 MHz). […]

[3] = tested on: U2OS, HMLER CD24^low, and iCSCL-10A2 cells; assay: Lysosomal ROS in cells; type: cell-based; conditions: all cell lines
[4] = tested on: HMLER CD24^low cells; assay: Annexin V/PI assay; type: cell-based, human; conditions: 0.5 μM, 72 h
Procedure: Annexin V/PI assay. Cells were treated as indicated. After treatment, cell death was quantified using Annexin V-FITC/Propidium Iodide (PI) assay according to the manufacturer's protocol (FITC Annexin V Apoptosis Detection Kit II, 556570, BD Pharmingen™) and analyzed by a LSRFortessa™ flow cytometer (BD Bioscience, San Jose, Calif.). The data were processed using Cell Quest software (BD Biosciences).

| SMILES | staining of iron(II) (subcellular localization) [1] | lysotracker-positive vesicles colocalized with the RhoNox-1 probe [1] | stability in the presence of iron(II) over time [2] | lysosomal ROS [3] | form of cell death [4] |
| --- | --- | --- | --- | --- | --- |
| C#CCN[C@@H]1C=C[C@]2(O[C@H]([C@@H](CC)C(=O)[C@@H](C)[C@@H](O)[C@H](C)C3O[C@@H](C(CC)C(=O)O)CC[C@@H]3C)[C@@H](C)C[C@H]2C)O[C@@]12CC[C@@](C)([C@H]1CC[C@](O)(CC)[C@H](C)O1)O2 (stereo partly shown) [AM5, Sal-Propargylamine] | restricted to the lysosomal compartment | approximately 80% | stable | significant increase in lysosomal ROS | ferroptosis |
| CC[C@@H](C(=O)[C@@H](C)[C@@H](O)[C@H](C)[C@@H]1O[C@@H]([C@@H](CC)C(=O)O)CC[C@@H]1C)[C@H]1O[C@]2(C=C[C@@H](O)[C@]3(CC[C@@](C)([C@H]4CC[C@](O)(CC)[C@H](C)O4)O3)O2)[C@H](C)C[C@@H]1C [Sal, salinomycin, reference compound] | restricted to the lysosomal compartment | approximately 80% | formation of byproducts | significant increase in lysosomal ROS | ferroptosis |

Source: US11573241B2, “Total cellular iron as a marker of cancer stem cells and uses thereof” (Institut National de la Sante et de la Recherche Medicale …, priority 2016, dated 2023)
